Assay results from US8829203B2, “3′,6-substituted indirubins and their biological applications” (Centre National de la Recherche Scientifique (CNRS), priority 2008, dated 2014).

Legend:
GSK-3α/β = GSK-3α/β kinase assay (GS-1 substrate, 15 μM ATP); type: biochemical, porcine; settings: 30° C., 30 min, read-out: GSK3 IC50
Experimental: (§1) Blank values were subtracted and activities calculated as pmoles of phosphate incorporated during a […] incubation. The activities were expressed in % of the maximal activity, i.e. in the absence of inhibitors. Controls were performed with appropriate dilutions of dimethylsulfoxide. Phosphorylation of the substrate was assessed by the P81 phosphocellulose assay.
GSK-3α/β was purified from porcine brain by affinity chromatography on immobilized axin^5. […] ATP (3,000 Ci/mmol; 10 mCi/ml) in a final volume of 30 μl. After 30 min. incubation at 30° C., 25 μl aliquots of supernatant were processed as described above.

CDK1/cyclin B = CDK1/cyclin B kinase assay (histone H1, 15 μM ATP); type: biochemical, starfish (Marthasterias glacialis); settings: 30° C., 30 min
CDK5/p25 = CDK5/p25 (Homo sapiens, UniProt Q00535); experiment: CDK5/p25 kinase assay (histone H1, 15 μM ATP); type: biochemical; settings: 30° C., 30 min
CDK5/p25, sequence (Q00535 whole entry): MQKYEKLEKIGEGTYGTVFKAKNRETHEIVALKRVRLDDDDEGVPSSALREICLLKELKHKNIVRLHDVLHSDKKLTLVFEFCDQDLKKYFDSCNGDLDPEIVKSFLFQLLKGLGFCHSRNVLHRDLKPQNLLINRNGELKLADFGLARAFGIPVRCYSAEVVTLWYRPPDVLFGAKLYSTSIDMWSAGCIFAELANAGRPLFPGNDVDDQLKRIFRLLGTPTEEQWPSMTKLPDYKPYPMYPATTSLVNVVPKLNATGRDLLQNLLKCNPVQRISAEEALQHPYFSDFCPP
CDK5/p25, sequence (Q15078 99-307 partner limits assumed): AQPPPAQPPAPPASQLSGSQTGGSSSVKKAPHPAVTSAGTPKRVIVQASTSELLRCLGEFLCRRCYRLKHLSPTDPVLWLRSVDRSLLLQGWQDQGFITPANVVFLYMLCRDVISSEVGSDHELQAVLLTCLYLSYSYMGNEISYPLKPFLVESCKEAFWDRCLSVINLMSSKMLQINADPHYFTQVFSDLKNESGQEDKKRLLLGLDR
Experimental: as §1
CDK5/p25 was reconstituted by mixing equal amounts of recombinant human CDK5 and p25 expressed in E. coli as GST (Glutathione-S-transferase) fusion proteins and purified by affinity chromatography on glutathione-agarose (p25 is a truncated version of p35, the 35 kDa CDK5 activator). Its activity was assayed with histone H1 in buffer C as described for CDK1/cyclin B.

[1] = tested on: Per2 promoter (PPer2) activity, Rat-1 fibroblasts; experiment: Luminescence assay of circadian rhythmicity, Rat-1 fibroblasts PPer2::Fluc; type: cell-based; settings: 10 μM, left continuously, monitored 4 days
Experimental: FIGS. 3a and 3b: the alteration of the circadian period in mammalian fibroblasts by the indirubin derivatives. Rat-1 fibroblasts stably transfected with a PPer2::Fluc reporter construct show a robust circadian rhythm of luminescence as a gauge of clock-controlled Per2 promoter (PPer2) activity. Cells were cultured up to 100% confluence and treated for 2 h with 0.1 μM dexamethasone to synchronize the oscillators. The medium was then replaced with assay medium supplemented with 0.1 mM luciferin and the luminescence rhythm was monitored for 4 days or more. Compounds were added to the culture dishes at 10 μM and left continuously. DMSO was used as a solvent control. Regression analyses were used to determine period and phase of the luminescence rhythms. 3a. Time-course of a typical luminescence rhythm recorded in control cells (◯) or cells treated with indirubin 15 (•). White arrows indicate the peaks of luminescence in control cells, black arrows indicate the peaks of luminescence in indirubin 15 treated cells. 3b. Period lengths calculated in cells exposed to various compounds. C, control; K, kenpaullone.
The cells were cultured in DMEM (11965-092, GIBCO/Invitrogen) supplemented with 5% FBS, 50 units/ml penicillin, and 50 μg/ml streptomycin in a 5% CO2 incubator at 37° C. […] The luminescence rhythm was monitored in a LumiCycle (Actimetrics Inc., Evanston, Ill., USA). […]

## O=C1Nc2cc(Br)ccc2/C1=C1/Nc2ccccc2/C1=N\OCCN1CCN(CCOCCO)CC1 [Cpd 15, (2′Z-3′E)-6-Bromoindirubin-3′-[O-(2-{4-[2-(2-hydroxyethoxy)-ethyl]piperazin-1-yl}ethyl)oxime]]
GSK-3α/β
  IC50: 14 nM
CDK1/cyclin B
  IC50: 900 nM
CDK5/p25
  IC50: 310 nM
[1]
  Circadian period length of luminescence rhythm: gradual shortening of the period length
